SMILES strings stand for the structures.

This assay deals with T1, HIV integrase (Human immunodeficiency virus type 1 group M subtype B, UniProt P12497, F1332H).
T1 construct: HIV integrase full length gene; made in house; host or cells: Escherichia coli BL21(DE3)
Description: Determination of enzyme (HIV integrase) inhibitory activity. The format is biochemical, HIV (Human Immunodeficiency Virus (type 1)). To be noted: recombinant integrase protein (F185H), strand transfer plate assay, absorbance at 450 nm. The text has this: The following explains evaluation methods of the HIV integrase inhibitory activity of the compound of the present invention.
(i) Construction of Recombinant Integrase Gene Expression System
HIV integrase full length gene (J. Virol., 67, 425-437 (1993)) in which phenylalanine at codon 185 was substituted by histidine, was inserted between the restriction enzyme NdeI and XhoI sites of plasmid pET21a(+) (Novagen), whereby an integrase expression vector pET21a-IN-F185H was constructed.
(ii) Production and Purification of Integrase Protein
Escherichia coli recombinant BL21(DE3) transformed with plasmid pET21a-IN-F185H obtained in (i) was shake cultured at 30° C. in a liquid medium containing ampicillin. When the culture reached the logarithmic growth phase, isopropyl-β-D-thiogalactopyranoside was added to promote expression of integrase gene. The culture was continued for 3 hr to promote accumulation of the integrase protein. The recombinant E. coli was collected in pellets by centrifugal separation and preserved at −80° C.
The E. coli was suspended in Lysis buffer ([…] HEPES (pH 7.5), 5 mM DTT, 10 mM CHAPS, 10% glycerol) containing 1M sodium chloride and subjected to repeat pressurization and depressurization for rupture, and centrifugal separation at 4° C., 40,000×g, 60 min to recover a water-soluble fraction (supernatant). This was diluted 10-fold with Lysis buffer free of sodium chloride, mixed with SP-Sepharose (GE healthcare Bioscience) and stirred at 4° C. for 60 min to allow adsorption of integrase protein to the resin. The resin was washed with Lysis buffer containing 100 mM sodium chloride and the integrase protein was eluted with Lysis buffer containing 1M sodium chloride.
The eluted integrase protein solution was subjected to a Superdex 75 (GE healthcare Bioscience) column for gel filtration. The protein was eluted with Lysis buffer containing 1M sodium chloride.
The obtained fractions of the integrase protein were collected and preserved at −80° C.
(iii) Preparation of DNA Solution
The following DNA synthesized by Greiner or FASMAC was dissolved in TE buffer (10 mM Tris-hydrochloric acid (pH 8.0), 1 mM EDTA) and mixed with donor DNA, target DNA, and each complementary strand (+ and − strands) to 1 μM. The mixture was heated at 95° C. for 5 min, 80° C. for 10 min, 70° C. for 10 min, 60° C. for 10 min, 50° C. for 10 min and 40° C. for 10 min and kept at 25° C. to give a double stranded DNA, which was used for the test.
(iv) Determination of Enzyme (HIV Integrase) Inhibitory Activity
The donor DNA was diluted with TE buffer to 10 nM (or 5 nM), of which 50 μl was added to each well of streptavidin-coated microtiter plate (Roche) and allowed to adsorb at 37° C. for 60 min. The plate was washed with phosphate buffer (Dulbecco's PBS, Sanko Junyaku Co., Ltd.) containing 0.1% Tween 20 and phosphate buffer. Then, an enzyme reaction mixture (70 μl), a test substance (10 μl) diluted with the enzyme reaction mixture and 100 μg/ml (or 64 μg/ml (2 μM)) integrase protein (10 μl) were added to each well and reacted at 37° C. for 60 min.
Composition of the enzyme reaction mixture: 30 mM MOPS (3-morpholinopropanesulfonic acid), 5 mM magnesium chloride, 3 mM DTT (dithiothreitol), 0.1 mg/ml BSA (bovine serum albumin), 5% glycerol, 10% DMSO (dimethyl sulfoxide), 0.01% Tween 20.
Then, 50 nM (or 25 nM) target DNA (10 μl) was added, reacted at 37° C. for 10 min and washed with phosphate buffer containing 0.1% Tween 20 to stop the reaction.
Then, 100 mU/ml peroxidase labeled anti-digoxigenin antibody solution (Roche, 100 μl) was added, and the mixture was reacted at 37° C. for 60 min, followed by washing with phosphate buffer containing 0.1% Tween 20.
A peroxidase color solution (Bio Rad, 100 μl) was added and allowed to react at room temperature for 4 min (or 3 min). The color reaction was stopped by adding IN sulfuric acid (100 μl). The absorbance at 450 nm was measured. […]
For the compound `CCc1cc2c(cc1Cc1cc(N3CCOCC3)cc(Cl)c1F)c(=O)c(C(=O)O)cn2[C@H](CO)COC` [Example 20, 6-[3-chloro-2-fluoro-5-(morpholin-4-yl)benzyl]-7-ethyl-1-[(R)-2-hydroxy-1-(methoxymethyl)ethyl]-4-oxo-1,4-dihydroquinoline-3-carboxylic acid], the concentration for half-maximal inhibition (IC50) is below 10 nM. In the case of `COc1cc2c(cc1Cc1cc(N3CCCS3(=O)=O)cc(Cl)c1F)c(=O)c(C(=O)O)cn2[C@H](CO)C(C)C` [Example 21, 6-[3-chloro-5-(1,1-dioxoisothiazolidin-2-yl)-2-fluorobenzyl]-1-((S)-1-hydroxymethyl-2-methylpropyl)-7-methoxy-4-oxo-1,4-dihydroquinoline-3-carboxylic acid] it was below 10 nM. In the case of `COC[C@@H](CO)n1cc(C(=O)O)c(=O)c2cc(Cc3cc(N4CCOCC4)cc(Cl)c3F)c(OC)cc21` [Example 22, 6-[3-chloro-2-fluoro-5-(morpholin-4-yl)benzyl]-1-[(R)-2-hydroxy-1-(methoxymethyl)ethyl]-7-methoxy-4-oxo-1,4-dihydroquinoline-3-carboxylic acid] it was below 10 nM; in that of `CCc1cc2c(cc1Cc1cc(N3CCOCC3)cc(Cl)c1F)c(=O)c(C(=O)O)cn2[C@H](CO)C(C)C` [Example 23, 6-[3-chloro-2-fluoro-5-(morpholin-4-yl)benzyl]-7-ethyl-1-((S)-1-hydroxymethyl-2-methylpropyl)-4-oxo-1,4-dihydroquinoline-3-carboxylic acid], below 10 nM; in that of `CCc1cc2c(cc1Cc1cc(N3CCCC3=O)cc(Cl)c1F)c(=O)c(C(=O)O)cn2[C@H](CO)C(C)C` [Example 24, 6-[3-chloro-2-fluoro-5-(2-oxopyrrolidin-1-yl)benzyl]-7-ethyl-1-((S)-1-hydroxymethyl-2-methylpropyl)-4-oxo-1,4-dihydroquinoline-3-carboxylic acid], 10 to 100 nM. In the case of `COc1cc2c(cc1Cc1cc(N3CCCC3=O)c(F)c(Cl)c1F)c(=O)c(C(=O)O)cn2[C@H](CO)C(C)C` [Example 25, 6-[3-chloro-2,4-difluoro-5-(2-oxopyrrolidin-1-yl)benzyl]-1-((S)-1-hydroxymethyl-2-methylpropyl)-7-methoxy-4-oxo-1,4-dihydroquinoline-3-carboxylic acid] it was below 10 nM. Take `CCc1cc2c(cc1Cc1cc(N3CCCC3=O)c(F)c(Cl)c1F)c(=O)c(C(=O)O)cn2[C@H](CO)C(C)C` [Example 26, 6-[3-chloro-2,4-difluoro-5-(2-oxopyrrolidin-1-yl)benzyl]-7-ethyl-1-((S)-1-hydroxymethyl-2-methylpropyl)-4-oxo-1,4-dihydroquinoline-3-carboxylic acid]: the IC50 is below 10 nM. The figure for `COc1cc2c(cc1Cc1cc(N3CCSCC3)cc(Cl)c1F)c(=O)c(C(=O)O)cn2[C@H](CO)C(C)C` [Example 27, 6-[3-chloro-2-fluoro-5-(thiomorpholin-4-yl)benzyl]-1-((S)-1-hydroxymethyl-2-methylpropyl)-7-methoxy-4-oxo-1,4-dihydroquinoline-3-carboxylic acid] is below 10 nM; for `COc1cc2c(cc1Cc1cc(N3CCOCC3)cc(Cl)c1F)c(=O)c(C(=O)O)cn2[C@H](CO)[C@H](C)OC` [Example 28, 6-[3-chloro-2-fluoro-5-(morpholin-4-yl)benzyl]-1-((1R,2S)-1-hydroxymethyl-2-methoxypropyl)-7-methoxy-4-oxo-1,4-dihydroquinoline-3-carboxylic acid] it is below 10 nM.

As for `COCC[C@@H](CO)n1cc(C(=O)O)c(=O)c2cc(Cc3cc(N4CCOCC4)cc(Cl)c3F)c(OC)cc21` [Example 29, 6-[3-chloro-2-fluoro-5-(morpholin-4-yl)benzyl]-1-((S)-1-hydroxymethyl-3-methoxypropyl)-7-methoxy-4-oxo-1,4-dihydroquinoline-3-carboxylic acid], the 50% inhibitory concentration (IC50) is below 10 nM. As for `COc1cc2c(cc1Cc1cc(N3CCC(O)CC3)cc(Cl)c1F)c(=O)c(C(=O)O)cn2[C@H](CO)C(C)C` [Example 32, 6-[3-chloro-2-fluoro-5-(4-hydroxypiperidin-1-yl)benzyl]-1-((S)-1-hydroxymethyl-2-methylpropyl)-7-methoxy-4-oxo-1,4-dihydroquinoline-3-carboxylic acid], the IC50 is below 10 nM. In the case of `CCc1cc2c(cc1Cc1cc(N3CCOCC3)cc(Cl)c1F)c(=O)c(C(=O)O)cn2[C@H](CO)[C@@H](C)OC` [Example 34, 6-[3-chloro-2-fluoro-5-(morpholin-4-yl)benzyl]-7-ethyl-1-((1R,2R)-1-hydroxymethyl-2-methoxypropyl)-4-oxo-1,4-dihydroquinoline-3-carboxylic acid] it was below 10 nM. The figure for `CCc1cc2c(cc1Cc1cc(N3CCOCC3)cc(Cl)c1F)c(=O)c(C(=O)O)cn2[C@H](CO)[C@H](C)OC` [Example 35, 6-[3-chloro-2-fluoro-5-(morpholin-4-yl)benzyl]-7-ethyl-1-((1R,2S)-1-hydroxymethyl-2-methoxypropyl)-4-oxo-1,4-dihydroquinoline-3-carboxylic acid] is 10 to 100 nM; for `COc1cc2c(cc1Cc1cc(-c3ccccn3)cc(Cl)c1F)c(=O)c(C(=O)O)cn2[C@H](CO)C(C)C` [Example 36, 6-[3-chloro-2-fluoro-5-(pyridin-2-yl)benzyl]-1-((S)-1-hydroxymethyl-2-methylpropyl)-7-methoxy-4-oxo-1,4-dihydroquinoline-3-carboxylic acid] it is below 10 nM; for `COc1cc2c(cc1Cc1cc(-c3nccs3)cc(Cl)c1F)c(=O)c(C(=O)O)cn2[C@H](CO)C(C)C` [Example 37, 6-[3-chloro-2-fluoro-5-(thiazol-2-yl)benzyl]-1-((S)-1-hydroxymethyl-2-methylpropyl)-7-methoxy-4-oxo-1,4-dihydroquinoline-3-carboxylic acid] it is 10 to 100 nM.

Take `CCO[C@H](C)[C@@H](CO)n1cc(C(=O)O)c(=O)c2cc(Cc3cc(N4CCOCC4)cc(Cl)c3F)c(CC)cc21` [Example 38, 6-[3-chloro-2-fluoro-5-(morpholin-4-yl)benzyl]-1-[(1R,2R)-2-ethoxy-1-(hydroxymethyl)propyl]-7-ethyl-4-oxo-1,4-dihydroquinoline-3-carboxylic acid]: the IC50 is below 10 nM. In the case of `CCOC[C@@H](CO)n1cc(C(=O)O)c(=O)c2cc(Cc3cc(N4CCCC4=O)cc(Cl)c3F)c(OC)cc21` [Example 39, 6-[3-chloro-2-fluoro-5-(2-oxopyrrolidin-1-yl)benzyl]-1-((R)-1-ethoxymethyl-2-hydroxyethyl)-7-methoxy-4-oxo-1,4-dihydroquinoline-3-carboxylic acid] it was below 10 nM; in that of `CCO[C@H](C)[C@@H](CO)n1cc(C(=O)O)c(=O)c2cc(Cc3cc(N4CCCC4=O)cc(Cl)c3F)c(CC)cc21` [Example 40, 6-[3-chloro-2-fluoro-5-(2-oxopyrrolidin-1-yl)benzyl]-1-[(1R,2R)-2-ethoxy-1-(hydroxymethyl)propyl]-7-ethyl-4-oxo-1,4-dihydroquinoline-3-carboxylic acid], 10 to 100 nM; in that of `CCc1cc2c(cc1Cc1cc(N3CCCC3=O)cc(Cl)c1F)c(=O)c(C(=O)O)cn2[C@H](CO)[C@@H](C)OC` [Example 41, 6-[3-chloro-2-fluoro-5-(2-oxopyrrolidin-1-yl)benzyl]-7-ethyl-1-((1R,2R)-1-hydroxymethyl-2-methoxypropyl)-4-oxo-1,4-dihydroquinoline-3-carboxylic acid], 10 to 100 nM.

These data come from US7872004B2, “6-(heterocyclyl-substituted benzyl)-4-oxoquinoline compound and use thereof as HIV integrase inhibitor” (Japan Tobacco Inc., priority 2006, dated 2011).
